Experimental data as given in patent publication EP4424303A1, “LENVATINIB COMPOSITION WITH IMPROVED BIOAVAILABILITY” (STADA ARZNEIMITTEL AG, priority 2023, dated 2024).
Structures can show the parent of a compound that is named as a salt.

Test: Saturation (equilibrium) solubility by shake-flask technique
Format: physicochemical
Settings: thermodynamic from solid, 37 °C ± 1 °C
Experimental: The equilibrium solubility of Lenvatinib mesylate in different dissolution media at 37 °C ± 1 °C was measured by shake-flask technique. The dissolution media were prepared according to USP. The pH for each test solution was measured after the addition of the drug substance and at the end of the equilibrium solubility study.
1. Table 1: saturation solubility of Lenvatinib mesylate depending on pH

solubility (USP dissolution medium pH 2.0, simulated gastric fluid, pH 2.0, Initial pH 2.0, Final pH 1.88): 2620 µg/mL
solubility (USP dissolution medium pH 4.5, aqueous buffer, pH 4.5, Initial pH 4.52, Final pH 4.38): 13 µg/mL
solubility (USP dissolution medium pH 5.5, aqueous buffer, pH 5.5, Initial pH 5.49, Final pH 5.25): 3 µg/mL
solubility (USP dissolution medium pH 6.8, aqueous buffer, pH 6.8, Initial pH 6.82, Final pH 6.68): 1 µg/mL
solubility (simulated gastric fluid, 0.1N HCl, Initial pH 1.1, Final pH 1.23): 1830 µg/mL
Structure (SMILES): COc1cc2nccc(Oc3ccc(NC(=O)NC4CC4)c(Cl)c3)c2cc1C(N)=O [Lenvatinib mesylate, 4-[3-chloro-4-(cyclopropylaminocarbonyl)aminophenoxy]-7-methoxy-6-quinolinecarboxamide]
